Data as given in article PMC5717164 (Nature Communications, 2017).

Assays:
[1] = target: T1, D-alanine:D-alanine ligase (EcDdlB) (Escherichia coli, UniProt P07862); experiment: co-crystal structures at […] Å (with D-Ala-D-Ala) and […] Å (with DCSP, 4C5A); format: binding
T1 construct: gene ddlB; all 306 residues of the native protein, with amino-terminal histidine-tag

[2] = target: T1, D-alanine:D-alanine ligase (EcDdlB); experiment: co-crystal structure at […] Å (formed in situ from ATP and DCS); format: binding

SMILES	co-crystal structures at 1.5 Å (with D-Ala-D-Ala) and 1.65 Å (with DCSP, 4C5A) [1]	co-crystal structure at 1.65 Å (formed in situ from ATP and DCS) [2]
Nc1ncnc2c1ncn2[C@@H]1O[C@H](COP(=O)(O)OP(=O)(O)O)[C@@H](O)[C@H]1O [ADP]	The adenine ring of the ATP or ADP ligand lies in a pocket mainly composed of hydrophobic and aromatic residues	
NC1CON=C1OP(=O)(O)O [DCSP, phosphorylated D-cycloserine]		phosphorylated DCS was bound in the high-affinity D-alanine binding site (D-Ala1)
